Results as given in ChEMBL document CHEMBL1949543, “Synthesis and evaluation of novel monosubstituted sulfonylurea derivatives as antituberculosis agents” (Eur J Med Chem, 2012).
In brackets after ≈: the same amount, converted by molar mass.

Tested on: Mycobacterium tuberculosis variant bovis
Experiment: Antituberculosis activity against Mycobacterium bovis ATCC 25523
Type: functional

SMILES | MIC [µg/mL]
Cc1ccnc(NC(=O)NS(=O)(=O)c2cc(NC(=O)CCl)ccc2Cl)n1 | 10 (≈ 23.9 µM)
COc1ccnc(NC(=O)NS(=O)(=O)c2cc(NC(=O)CCl)ccc2Cl)n1 | 10 (≈ 23 µM)
